From PMC8099175, “SARS-CoV-2 M^pro inhibitors with antiviral activity in a transgenic mouse model” (Science (New York, N.y.), 2021)
Where two headings read alike, the source gives them in different places.

Tests used:
[1] = tested on: SARS-CoV-2–infected Vero E6 cells; assay: cell protection assay (CCK8); format: cell-based; settings: for EC50: Vero E6 cells, MOI 0.1, 3 dpi, CCK8
[2] = tested on: SARS-CoV-2 in HPAEpiC cells; assay: RT-qPCR virus replication assay in HPAEpiC cells; format: cell-based; settings: for EC90: Severe acute respiratory syndrome coronavirus 2
[3] = acute toxicity experiment in rats; format: in vivo; settings: i.v. 40 mg/kg, i.p. 250 mg/kg, or p.o. 500 mg/kg
[4] = PK experiments in Sprague-Dawley rats; settings: rat
From the text: To identify which of the six compounds is suitable for in vivo antiviral studies, we conducted PK experiments in Sprague-Dawley rats.

[5] = repeated dose toxicity study in rats; format: in vivo; settings: i.v. 6 and 18 mg kg^–1 day^–1, i.p. 100 and 200 mg kg^–1 day^–1, or p.o. 100 and 200 mg/kg twice daily, 7 consecutive days
[6] = tested on: SARS-CoV-2; assay: hACE2 transgenic mouse model of SARS-CoV-2 infection; format: in vivo, hACE2 transgenic mice; settings: for viral RNA loads in the lung tissues: 2 × 10^6 TCID50, 50 mg/kg, 3 and 5 dpi; for viral loads in the lung tissues: 5 dpi; for lung histopathology / neutrophils and macrophages in the lungs vs control mice: 5 × 10^6 TCID50, 3 dpi; for expression levels of IFN-β and CXCL10 in the lungs: 5 × 10^6 TCID50, lung tissue homogenate; for lung viral loads and lung lesions: oral or intraperitoneal treatment, summary statement; for abnormal behaviors or body weight loss: pilot study, 2 × 10^6 TCID50, MI-09 50 mg/kg p.o. bid or i.p. qd, MI-30 50 mg/kg i.p. qd, 6-day period
[7] = Sprague-Dawley, in vivo, ip, 20 mg/kg
[8] = Sprague-Dawley, in vivo, iv, 10 mg/kg
[9] = Sprague-Dawley, in vivo, po, 20 mg/kg
[10] = Severe acute respiratory syndrome coronavirus 2, Vero C1008
[11] = 2 × 10^6 TCID50, 50 mg/kg (MI-09 p.o. bid or i.p. qd; MI-30 i.p. qd), 1 dpi
[12] = 5 × 10^6 TCID50, 100 mg/kg i.p. or p.o., 1 dpi
[13] = 5 × 10^6 TCID50, 100 mg/kg i.p. or p.o., 3 dpi
[14] = 5 × 10^6 TCID50, 100 mg/kg i.p. or p.o.
[15] = Severe acute respiratory syndrome coronavirus 2, read-out: EC50, SARS-CoV-2 virus replication (RT-qPCR)

| Compound | mortality, acute toxicity [3] | AUC [4, 7] [ng·h/mL] | AUC [4, 8] [ng·h/mL] | AUC [4, 9] [ng·h/mL] | bioavailability [4, 9] [%] | toxicity, repeated dose [5] | EC90 [1, 10] [µM] | EC50 [1, 10] [µM] | mean viral RNA loads in the lung tissues vs control [6, 11] | viral RNA loads in the lung tissues [6] | mean viral RNA loads in the lung tissues vs control [6, 12] | mean viral RNA loads in the lung tissues vs control [6, 13] | viral loads in the lung tissues [6, 14] | lung histopathology [6] | neutrophils and macrophages in the lungs vs control mice [6] | expression levels of IFN-β and CXCL10 in the lungs ([6]; 3 dpi) | lung viral loads and lung lesions [6] | abnormal behaviors or body weight loss [6] | EC90 [2] [µM] | EC50 [2, 15] [µM] | also measured |
| --- | --- | --- | --- | --- | --- | --- | --- | --- | --- | --- | --- | --- | --- | --- | --- | --- | --- | --- | --- | --- | --- |
| CC(C)C[C@H](NC(=O)OCc1ccccc1)C(=O)N[C@@H](CC1CCNC1=O)C(O)S(=O)(=O)O (some centres unmarked) [GC376, reference compound] | – | – | – | – | – | – | – | – | – | – | – | – | – | – | – | – | – | – | – | – | EC50 [1]: 1.46 µM; EC50 ([2]; HPAEpiC cells, MOI 0.01, 2 dpi, viral RNA copies in supernatant, read-out: EC50, SARS-CoV-2 virus replication (RT-qPCR)): 0.153 µM |
| CC1(C)[C@@H]2[C@@H](C(=O)N[C@H](C=O)C[C@@H]3CCNC3=O)N(C(=O)COc3ccc(OC(F)(F)F)cc3)C[C@@H]21 [MI-09] | no rats died | 11600 | 7430 | 1660 | 11.2 | did not result in noticeable toxicity | 3.62 | 0.86 | significantly (P < 0.05, Student’s t test) lower | almost undetectable | slightly lower | significantly lower | undetectable | slight alveolar septal thickening and mild inflammatory cell infiltration | fewer | reduced | significantly reduced | no abnormal behaviors or body weight loss were observed | 0.0479 | 0.0012 | – |
| O=C[C@H](C[C@@H]1CCNC1=O)NC(=O)[C@@H]1[C@H]2CCC[C@H]2CN1C(=O)COc1ccc(Cl)cc1Cl [MI-30] | no rats died | 14900 | 9770 | 2840 | 14.6 | did not result in noticeable toxicity | 2.12 | 0.54 | significantly (P < 0.05, Student’s t test) lower | almost undetectable | slightly lower | significantly lower | undetectable | slight alveolar septal thickening and mild inflammatory cell infiltration | fewer | reduced | significantly reduced | no abnormal behaviors or body weight loss were observed | 0.0588 | 0.0011 | half-life [4, 7]: 3.88 h; clearance rate (CL) ([4]; i.p. administration): 17.10 ml min^–1 kg^–1 |
